What was measured:
[1] = system: rat cerebral ischemia models; experiment: Antidementia effect in rat cerebral ischemia models (Example 10); assay type: in vivo; conditions: 2×40 mg/kg/day intraperitoneally for 6 days from 24 hours after ischemia; retention trial 12 hours after final administration; 8 rats
Method: After 12 hours from the final administration, retention trial was carried out.

[2] = biological target: T1, GlcCer (glucosylceramide) synthase (Rattus norvegicus, UniProt Q9R0E0); experiment: Enzyme activity in treated cerebral cortex culture: GlcCer synthase; assay type: cell-based; conditions: culture treated with 15 μM for 40 hours; read-out: Accelerating activity when enzyme activity of control is defined as 100%: GlcCer-synthase
T1 construct: primary culture of cerebral cortex tissue specimens of Wister albino rats; endogenous in cells; host or cells: primary culture of rat (Wistar) cerebral cortex, sonicated after 40 h with compound
T1 sequence (Q9R0E0 1-394): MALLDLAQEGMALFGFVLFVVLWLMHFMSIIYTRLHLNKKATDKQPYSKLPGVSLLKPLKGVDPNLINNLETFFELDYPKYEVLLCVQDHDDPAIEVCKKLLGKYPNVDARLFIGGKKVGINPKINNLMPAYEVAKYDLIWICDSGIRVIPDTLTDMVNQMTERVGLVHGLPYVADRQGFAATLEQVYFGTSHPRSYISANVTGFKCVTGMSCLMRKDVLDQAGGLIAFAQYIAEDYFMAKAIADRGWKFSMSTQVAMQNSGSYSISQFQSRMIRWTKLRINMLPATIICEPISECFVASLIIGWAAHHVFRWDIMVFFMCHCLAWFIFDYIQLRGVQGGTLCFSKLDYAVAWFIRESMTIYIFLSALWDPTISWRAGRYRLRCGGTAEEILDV
Method: After the mixture was cultured for 40 hours, the resulting culture was harvested and pulverized in a homogenized buffer (50 mM Hepes, 0.32M sucrose) by using a chip type sonicator to prepare an enzyme source.
After ^3 H-GlcCer which was a reaction product was extracted with t-butyl methyl ether, the extract was concentrated and evaporated to dryness, and its radioactivity was measured.

ICR mice = experiment: General toxicity, continuous 10-day intraperitoneal administration; assay type: in vivo; conditions: 100 mg/kg/day intraperitoneally for 10 days
explants = experiment: Neurite-extending activity in explants (Example 6); assay type: cell-based; conditions: cultured for 40 hours, FIG. 5
Method: 1.6×10^5 cells/well of explants were sowed in a plate with 24 wells containing a DMEM medium. […] After the mixture was cultured for 40 hours, the resulting culture was fixed and then dyed with Coomassie, and nervous fibers extended to have a length which was longer than a diameter of […] were counted.

With `CCCCCCCCCC(=O)N[C@@H](CN1CCOCC1)[C@@H](O)c1ccccc1` [L-threo-PDMP, 1-phenyl-2-decanoylamino-3-morpholino-1-propanol] the “rats recovered to a normal level” value [1] was 50%, the enzyme activity relative to control at 15 µM [2] was 122% and the “decrease in weight / decrease in neutrophile, acidocyte due to suppression of bone marrow” value (ICR mice; in Myrj 52) was “neither decrease in weight nor decrease in neutrophile, acidocyte, etc. due to suppression of bone marrow was observed”. The “abnormality on observation for 3 months” value (ICR mice; observation for 3 months) was “no abnormality was observed”, the “concentration at which extension of neurites was the largest” value (explants) was 15 µM and the minimal effective concentration (explants; read-out: concentration at which extension of neurites was observed) was no less than 5 µM.
